Publication PMC8778091, “In Silico-Based Discovery of Natural Anthraquinones with Potential against Multidrug-Resistant E. coli” (Pharmaceuticals, 2022)
≈ marks a conversion by molar mass, not a printed value. Read-outs that look alike come from different tables or passages of the source.

Assays:
[1] = biological target: T1, E. coli DAla:D-Ala ligase (Ddl-B) (Escherichia coli, UniProt P07862); assay: Ddl-B enzymatic activity assay (inorganic phosphate, absorbance 650 nm); format: biochemical
T1 construct: purchased ProFoldin DDA100KE
Method: (§1) Ddl-B and Gyr-B activity assays were performed according to the manufacturer protocols (ProFoldin, Catalogue No. DDA100KE, and Inspiralis, Catalogue No. ATPG001, UK).
Ddl-B enzymatic activity assay is based on measuring the inorganic phosphate generated from the D-Alanine: D-Alanine ligation reaction. The inorganic phosphate is detected by absorbance at 650 nm. The assay reactions and detection were performed by using a 96-well plate. Different concentrations of the test compounds and the reference inhibitor D-cycloserine were prepared in DMSO (from 10 µM to 1000 µM). […] Thereafter, 33 μL of 10× enzyme substrate was prepared by mixing 3.3 μL of 100× enzyme substrate with 29.7 μL of water. Finally, 27 μL of the premix with 3 μL of the 10× enzyme substrate in each well were mixed. After 60 min of incubation at 37 °C, 45 μL of MPA3000 dye was added into the 30 μL of the reaction mixture. After 5 min of incubation, absorbance was measured at 650 nm.

[2] = biological target: T2, E. coli gyrase B43 domain (Gyr-B) (Escherichia coli, UniProt P0AES6); assay: biochemical; format: biochemical
T2 construct: 20 μL of the enzyme (E. coli gyrase B43 domain; 20 μM concentration); purchased Inspiralis ATPG001
Method: as §1
Gyr-B assay measured the capability of the tested compounds to hinder the ATPase activity of Gyr-B subunits. This assay links the hydrolysis of ATP by gyrase to the conversion of NADH to NAD^+, which can be measured by a change in absorbance at 340 nm. The assay reactions and detection were performed using a 96-well plate. […] First, the assay mix was prepared by mixing 20 μL of the assay buffer (50 mM Tris.HCl (pH 7.5), 1 mM EDTA, 5 mM magnesium chloride, 5 mM DTT, 10% (w/v) glycerol), 1 μL phosphoenolpyruvate (80 mM in water), 1.5 μL pyruvate kinase/lactate dehydrogenase stock, 2 μL NADH (20 mM in water), and 58.8 μL water. Thereafter, 63.3 μL of assay mix and 10 μL of the test compound solution and 20 μL of the enzyme (E. coli gyrase B43 domain; 20 μM concentration) were added into the wells and mixed by pipetting. After incubation for 10 min at 25 °C, 6.7 uL of ATP (30 mM) was added to each well. After 60 min of incubation at 25 °C, the absorbance was measured at 340 nm.

[3] = system: E. coli (MDR) a clinical isolate; assay: MIC, agar dilution method, E. coli MDR a; format: cell-based; details: for MIC: Escherichia coli; for MIC (antibiotic susceptibility) E. coli MDRa: Table S3, unpublished data of microbiology unit, Beni Suef general hospital, same procedure
Method: (§2) The selected top-scoring hits were evaluated for their antibacterial effect against two clinical multidrug-resistant strains of enterotoxigenic E. coli. Both isolates were isolated as clinical samples from Beni Suef general hospital, Beni Suef, Egypt. […] MRSA (ATCC 25529) and VRSA (clinical isolate from Beni Suef general hospital, Beni Suef, Egypt) were also used to further evaluate the tested compounds against resistant Gram-positive bacteria.
(§3) Minimum inhibitory concentrations for the test compounds were analyzed following the standard agar dilution method using Meuller-Hinton (MH) agar medium against different Gram-negative and positive bacteria (Table 1). Firstly, the tested compounds were prepared as a stock suspension with a 10 mg/mL final concentration in DMSO. Subsequently, the prepared stocks were diluted in 10 mL molten soft agar (0.5% agar) to obtain a concentration range from 1–64 µg/mL, then mixed and poured over a surface of MH agar (2% agar) plates and left for solidification. Finally, exponentially grown (O.D 600 nm of 0.6) test strains (Table 1) were diluted to a final density of 10^6 CFU/mL in MH broth and spotted (1 µL/spot) over the soft agar. Then, the plates were left for drying and incubated at 37 °C for 18–20 h. Controls were conducted using DMSO seeded soft agar. At the end of the experiment, the MIC for each compound was identified as the minimum concentration that inhibited the growth of the tested strain. The experiments were carried out in triplicates.

[4] = system: E. coli (MDR) b clinical isolate; assay: MIC, agar dilution method, E. coli MDR b; format: cell-based; details: for MIC: Escherichia coli, read-out: MIC E. coli (MDR) b; for MIC (antibiotic susceptibility) E. coli MDRb: Table S3, unpublished data of microbiology unit, Beni Suef general hospital, same procedure
Method: as §2, §3

[5] = system: MRSA (ATCC 25529); assay: MIC, agar dilution method, MRSA; format: cell-based, S. aureus; details: Staphylococcus aureus, read-out: MIC MRSA
Method: as §2, §3

[6] = system: VRSA (clinical isolate); assay: MIC, agar dilution method, VRSA; format: cell-based, S. aureus; details: for MIC: Staphylococcus aureus, VRSA, read-out: MIC VRSA
Method: as §2, §3

[7] = Cellular toxicity against normal fibroblasts WI-38 (MTT); format: cell-based; details: human
Method: All selected top-scoring compounds were tested for their cellular toxicity against human fibroblasts cell line (WI-38). Cell line (WI-38; ATCC: CCL-75) was maintained in earth RPMI 1640 medium comprising 10% heat-inactivated fetal bovine serum (FBS) and grown at 37 °C and 5% CO2. The cell line was seeded on 96-well cell culture plates (2 × 10^4 cells/well). Cells were stimulated with tested compounds at different concentrations (from 1 to 50 µM) overnight in triplicates. Doxorubicin was used as a positive control. Cell viability was assessed by MTT assay. To normalize cell viability values, each plate included a triplicate of untreated cells considered as 100% viability, and a triplicate of cells treated with a cytotoxic mixture (200 ng/mL TNF, 200 ng/mL CD95L, 200 ng/mL TRAIL, 5 μg/mL CHX, 1% (w/v) sodium azide […]) considered as 0% viability. All other viability values were normalized according to the averages of these triplicates and analyzed by the Graph Pad Prism 5 software (La Jolla, CA, USA).

[8] = 10-1000 µM tested, read-out: IC50 Ddl-B
[9] = range 1-64 µg/mL, 37 °C, 18-20 h
[10] = WI-38, 1 to 50 µM overnight, MTT, read-out: CC50
[11] = MDR isolates a and b not distinguished, read-out: MIC E. coli
[12] = range 1-64 µg/mL, 37 °C, 18-20 h, read-out: MIC E. coli (MDR) a
[13] = WI-38 normal fibroblast cells, WI-38, 1 to 50 µM overnight, MTT, read-out: CC50

SMILES	Ddl-B inhibition in words [1]	IC50 [1, 8] [µM]	Ki ([1]; read-out: Ki Ddl-B) [µM]	IC50 [2] [µM]	Ki [2] [µM]	MIC (antibiotic susceptibility) E. coli MDRb [4] [µg/mL]	MIC [3, 12] [µg/mL]	MIC [4, 9] [µg/mL]	MIC [5, 9] [µg/mL]	MIC [6, 9] [µg/mL]	also measured
O=C1c2ccccc2C(=O)c2c1ccc(O)c2O [Alizarin]	moderately inhibited	468 ± 6.5	220 ± 4.3	17.9 ± 1.2	10.4 ± 1.1						Gyr-B inhibition in words [2]: moderately inhibited; MIC ([3]; read-out: MIC E. coli): 64 µg/mL (≈ 266 µM); MIC ([3]; read-out: MIC E. coli (MDR) a): 64 µg/mL (≈ 266 µM); MIC [4]: > 64 µg/mL; MIC [5]: 64 µg/mL (≈ 266 µM); MIC [6]: > 64 µg/mL; MIC VRSA [6, 9]: >64 µg/mL; CC50 [7, 10]: 25.9 ± 0.69 µM
NCC[C@H](O)C(=O)N[C@@H]1C[C@H](N)[C@@H](O[C@H]2O[C@H](CN)[C@@H](O)[C@H](O)[C@H]2O)[C@H](O)[C@H]1O[C@H]1O[C@H](CO)[C@@H](O)[C@H](N)[C@H]1O [Amikacin, reference compound]						8 (≈ 13.7 µM)					
CC1(C)S[C@@H]2[C@H](NC(=O)[C@H](N)c3ccccc3)C(=O)N2[C@H]1C(=O)O [Ampicillin, reference compound]						> 64					MIC (antibiotic susceptibility) E. coli MDRa [3]: > 64 µg/mL
O=C1c2cccc(O)c2C(=O)c2cccc(O)c21 [Anthrarufin]	comparable to the reference inhibitor D-cycloserine	350 ± 7.4	345 ± 10.1	6.93 ± 1.6	4.1 ± 1.6		2 (≈ 8.33 µM)	2 (≈ 8.33 µM)	2 (≈ 8.33 µM)	> 64	Gyr-B inhibition in words [2]: moderate activity; MIC [3, 11]: 2 µg/mL (≈ 8.33 µM); MIC VRSA [6, 9]: >64 µg/mL; CC50 [7, 13]: 29.7 ± 0.76 µM
CC[C@H]1OC(=O)[C@H](C)[C@@H](O[C@H]2C[C@@](C)(OC)[C@@H](O)[C@H](C)O2)[C@H](C)[C@@H](O[C@@H]2O[C@H](C)C[C@H](N(C)C)[C@H]2O)[C@](C)(O)C[C@@H](C)CN(C)[C@H](C)[C@@H](O)[C@]1(C)O [Azithromycin, reference compound]						16 (≈ 21.4 µM)					
CO/N=C(\C(=O)N[C@@H]1C(=O)N2C(C(=O)O)=C(COC(C)=O)CS[C@H]12)c1csc(N)n1 [Cefotaxime, reference compound]						64 (≈ 141 µM)					MIC (antibiotic susceptibility) E. coli MDRa [3]: 32 µg/mL (≈ 70.3 µM)
CC(C)(O/N=C(\C(=O)N[C@@H]1C(=O)N2C(C(=O)[O-])=C(C[n+]3ccccc3)CS[C@H]12)c1csc(N)n1)C(=O)O [Ceftazidime, reference compound]						16 (≈ 29.3 µM)					MIC (antibiotic susceptibility) E. coli MDRa [3]: 32 µg/mL (≈ 58.5 µM)
N[C@@H]1CON=C1O [D-cycloserine, reference compound]		362	118 ± 11.7				16 (≈ 157 µM)	16 (≈ 157 µM)	32 (≈ 313 µM)	32 (≈ 313 µM)	
COc1cccc2c1C(=O)c1c(O)c3c(c(O)c1C2=O)C[C@@](O)(C(=O)CO)C[C@@H]3O[C@H]1C[C@H](N)[C@H](O)[C@H](C)O1 [Doxorubicin, reference compound]											CC50 [7]: 26.2 ± 0.61 µM
C[C@H]1COc2c(N3CCN(C)CC3)c(F)cc3c(=O)c(C(=O)O)cn1c23 [Levofloxacin, reference compound]											MIC (antibiotic susceptibility) E. coli MDRa [3]: 16 µg/mL (≈ 44.3 µM)
CO[C@@H]1[C@@H](OC(N)=O)[C@@H](O)[C@H](Oc2ccc3c(O)c(NC(=O)c4ccc(O)c(CC=C(C)C)c4)c(=O)oc3c2C)OC1(C)C [Novobiocin, reference compound]							64 (≈ 104 µM)	64 (≈ 104 µM)	1 (≈ 1.63 µM)	1 (≈ 1.63 µM)	
COc1cc(O)c2c(c1)C(=O)c1cc(C)cc(O)c1C2=O [Physcion]	more potent	244 ± 7.2	119 ± 9.1	10.9 ± 0.5	6.6 ± 0.9		2 (≈ 7.04 µM)	2 (≈ 7.04 µM)	2 (≈ 7.04 µM)	2 (≈ 7.04 µM)	CC50 [7, 13]: > 50 µM
O=C1c2ccccc2C(=O)c2c(O)ccc(O)c21 [Quinizarin]	moderately inhibited	515 ± 8.3	230 ± 8.3	38.8 ± 2.3	17.9 ± 1.4		64 (≈ 266 µM)	64 (≈ 266 µM)	64 (≈ 266 µM)	16 (≈ 66.6 µM)	Gyr-B inhibition in words [2]: moderately inhibited; MIC [3, 11]: 64 µg/mL (≈ 266 µM); CC50 [7, 13]: 20.1 ± 0.56 µM
O=C(O)c1cc(O)c2c(c1)C(=O)c1cccc(O)c1C2=O [Rhein]	more potent			11.5 ± 1.2	7.33 ± 0.9		8 (≈ 28.1 µM)	2 (≈ 7.04 µM)	> 64	8 (≈ 28.1 µM)	IC50 [1]: 281 ± 6.1 µM; Ki [1]: 133 ± 2.3 µM; CC50 [7, 10]: > 50 µM
